Source: paper PMC6882446, “Further validation of strecker-type α-aminonitriles as a new class of potent human carbonic anhydrase II inhibitors: hit expansion within the public domain using differential scanning fluorimetry leads to chemotype refinement” (Journal of Enzyme Inhibition and Medicinal Chemistry, 2019)

Each molecule was assayed against T1, hCA II (Homo sapiens, UniProt P00918) (assay: stopped-flow CO2 hydration assay). Conditions: not given.
T1 construct: gene CA2; recombinant human CA II, obtained in-house
Assay type: biochemical
Excerpt: stopped-flow CO2 hydration assay on hCA II
For `CC(C)C(C#N)N1CCN(c2ncnc3ccsc23)CC1` (stereo not drawn) [compound 16, Z1251205249], the Ki was 0.97 µM.
For `CC(C)C(C#N)N1CCN(CC(=O)NCc2ccccn2)CC1` (stereo not drawn) [compound 17, Z1176496598], the Ki was 0.78 µM.
For `CCNC(=O)CCCC(=O)N1CCN(C(C#N)c2ccccc2)CC1` (stereo not drawn) [compound 18, Z1185260979], the Ki was 0.93 µM.
Work on `COc1ccc(C(C#N)N2CCN(C(=O)C3CCCCC3)CC2)cc1` (stereo not drawn) [compound 30, Z146384300] yielded a Ki of 0.91 µM.
In the case of `CCc1noc(CC)c1CC(=O)N1CCN(C(C#N)C(C)C)CC1` (stereo not drawn) [compound 31, Z1390085782], the Ki is reported as 0.76 µM.
With `CNS(=O)(=O)CCCN1CCN(C(C#N)c2ccccc2)CC1` (stereo not drawn) [compound 32, Z1395303258] the Ki was 0.86 µM.
With `Cc1ccccc1CN1CCN(C(=O)CN2CCN(C(C#N)C(C)C)CC2)CC1` (stereo not drawn) [compound 35, Z1171402445] the Ki was 60.5 µM.
`CC(C)C(C#N)N1CCN(C(=O)CSc2ccc(Br)cc2)CC1` (stereo not drawn) [compound 36, Z1167646026] gave a Ki of 29.8 µM.
`CC(C)C(C#N)N1CCN(C(=O)C2CCCO2)CC1` (stereo not drawn) [compound 39, Z1167645477] showed a Ki of 20.4 µM.
`COc1ccc(C(=O)N2CCN(C(C#N)C(C)C)CC2)cc1OC(F)F` (stereo not drawn) [compound 46, Z1126852482] showed a Ki of 3.7 µM.
In the case of `CC(C)C(C#N)N1CCN(Cc2nccn2CC(F)(F)F)CC1` (stereo not drawn) [compound 47, Z1176495724], the Ki is reported as 38.2 µM.
Molecule `Cn1cc(CN2CCN(C(C#N)c3ccccc3)CC2)c(-c2cccnc2)n1` (stereo not drawn) [compound 50, Z1470771430] has a Ki of 0.68 µM.

Same assay, conditions: CO2 […]; […] Hepes pH […]; […] Na2SO4; room temperature; […] min pre-incubation
Work on `COc1ccc(C(C#N)N2CCN(C(=O)c3ccc(Br)cc3)CC2)cc1` (stereo not drawn) [compound 4, Z118259550] yielded a Ki of over 100 µM.
Work on `N#CC(Nc1ccc(F)cc1)c1ccco1` (stereo not drawn) [compound 5, Z131022682] yielded a Ki of 8.1 µM.
Molecule `COc1ccc(C(C#N)N2CCN(C(=O)c3ccc4[nH]c5c(c4c3)CC(C)CC5)CC2)cc1` (stereo not drawn) [compound 7, Z118259780] has a Ki of over 100 µM.
Molecule `N#CC(c1ccccc1)N1CCN(C(=O)C2CCN(S(=O)(=O)c3ccccc3F)CC2)CC1` (stereo not drawn) [compound 8, Z118260178] has a Ki of 74.3 µM.
Molecule `COc1ccc(C(C#N)N2CCN(C(=O)c3ccc(S(=O)(=O)N4CCCCCC4)cc3)CC2)cc1` (stereo not drawn) [compound 9, Z118259626] has a Ki of over 100 µM.
In the case of `N#CC(c1ccccc1)N1CCN(C(=O)c2ccccc2)CC1` (stereo not drawn) [compound 10, Z146786712], the Ki is reported as 53.7 µM.
Work on `N#CC(C1CCCCC1)N1CCN(C(=O)CCc2ccccn2)CC1` (stereo not drawn) [compound 12, Z913897024] yielded a Ki of 40.9 µM.
With `CC1(C)CN(C(C#N)c2ccc(Cl)cc2)CCO1` (stereo not drawn) [compound 13, Z1097120891] the Ki was 7.4 µM.
Molecule `CCNC(=O)C1CCCN(C(C#N)c2c(F)cccc2Cl)C1` (stereo not drawn) [compound 14, Z1230758078] has a Ki of 9.3 µM.
Molecule `CC(C)C(C#N)N1CCN(c2ncnc3cc(F)ccc23)CC1` (stereo not drawn) [compound 15, Z1251205230] has a Ki of over 100 µM.
With `N#CC1CN(C(=O)CCc2ccsc2)CCN1Cc1ccccc1` (stereo not drawn) [compound 19, Z1204316164] the Ki was 9.6 µM.
With `Cc1cnc(C(=O)N2CCN(Cc3ccccc3)C(C#N)C2)cn1` (stereo not drawn) [compound 20, Z1204317166] the Ki was 100 µM.
With `N#Cc1nccnc1N1CCN(Cc2ccccc2)C(C#N)C1` (stereo not drawn) [compound 21, Z1205181012] the Ki was over 100 µM.
Molecule `CCC(CC)c1cc(C(=O)N2CCN(C(C#N)C(C)C)CC2)on1` (stereo not drawn) [compound 22, Z1261078980] has a Ki of over 100 µM.
`CC(C)C(C#N)N1CCN(C(=O)c2scnc2C(C)(C)C)CC1` (stereo not drawn) [compound 23, Z1322755479] was tested, and the Ki was 9.1 µM.
Work on `N#CC(c1c(F)cccc1Cl)N1CCCC(N2CCNC2=O)C1` (stereo not drawn) [compound 24, Z1298330150] yielded a Ki of 16 µM.
Molecule `N#CC(c1c(F)cccc1Cl)N1CCC(N2CCCC2=O)CC1` (stereo not drawn) [compound 25, Z1298979831] has a Ki of 36.1 µM.
`CNC(=O)C1CCN(C(C#N)c2c(F)cccc2Cl)CC1` (stereo not drawn) [compound 26, Z1297989190] was tested, and the Ki was 3 µM.
`CC(C)C(C#N)N1CCN(C(=O)C/C=C/c2cccc(F)c2)CC1` (stereo not drawn) [compound 27, Z1343956502] showed a Ki of over 100 µM.
Molecule `N#CC(c1ccccc1)N1CCN(CC(=O)NC2CCOCC2)CC1` (stereo not drawn) [compound 28, Z1317906129] has a Ki of 8.9 µM.
`N#CC(c1ccccc1)N1CCN(Cc2cccnc2)CC1` (stereo not drawn) [compound 29, Z1317905741] gave a Ki of 3.7 µM.
In the case of `N#CC(c1ccccc1)N1CCN(CC(=O)NCC2CCC2)CC1` (stereo not drawn) [compound 33, Z1395304494], the Ki is reported as 5.3 µM.
For `Cc1ccc(N(CC(=O)N2CCN(C(C#N)C(C)C)CC2)C(C)C)cc1` (stereo not drawn) [compound 34, Z1567293695], the Ki was 5 µM.
`N#CC(c1ccccc1)N1CCN(CC2CCOC2)CC1` (stereo not drawn) [compound 37, Z1395305944] gave a Ki of 2.3 µM.
`N#CC(c1ccc(Br)cc1)N1CCN(CCN2C(=O)CNC2=O)CC1` (stereo not drawn) [compound 38, Z1567199718] gave a Ki of 5 µM.
In the case of `CC(C#N)N1CCN(C(=O)OC(C)(C)C)CC1` (stereo not drawn) [compound 40, Z1124717499], the Ki is reported as 41.9 µM.
Work on `Cc1ccc(C(=O)NCC(=O)N2CCN(C(C#N)C(C)C)CC2)cc1` (stereo not drawn) [compound 41, Z1416783341] yielded a Ki of 35.1 µM.
With `N#CC1COCCN1` (stereo not drawn) [compound 43, Z1198234963] the Ki was over 100 µM.
In the case of `CC(C)C(C#N)N1CCN(C(=O)CN2CCOC(c3ccc(F)cc3)C2)CC1` (stereo not drawn) [compound 45, Z1567277098], the Ki is reported as 40.9 µM.
With `Cc1ccc(C(=O)C2CCN(CC(=O)N3CCN(C(C#N)C(C)C)CC3)CC2)cc1` (stereo not drawn) [compound 48, Z1567280757] the Ki was 5.5 µM.
`N#CC(c1ccccc1)N1CCN(CC(=O)NCC(F)(F)F)CC1` (stereo not drawn) [compound 49, Z1317905463] gave a Ki of 3.5 µM.

These molecules were tested against T2, bCA (Bos taurus, UniProt P00921) (assay: biochemical). Conditions: not given.
T2 construct: gene CA2; commercial bovine carbonic anhydrase
T2 sequence (P00921 2-260): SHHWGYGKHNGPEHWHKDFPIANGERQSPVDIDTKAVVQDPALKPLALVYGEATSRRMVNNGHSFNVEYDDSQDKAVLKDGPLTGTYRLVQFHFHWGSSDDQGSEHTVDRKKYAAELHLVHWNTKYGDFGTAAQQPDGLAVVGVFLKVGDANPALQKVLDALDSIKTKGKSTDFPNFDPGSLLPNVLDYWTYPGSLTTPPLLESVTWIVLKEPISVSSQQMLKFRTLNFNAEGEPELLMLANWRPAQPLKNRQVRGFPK
Design: Differential scanning fluorimetry (SYPRO Orange) melting temperature shift of bCA, 20 uM compound
Method: (§1) Thermal shift assay was carried out using ViiA™ 7 Real-Time PCR System equipped with 384-well block (Applied Biosystems, USA). The TSA procedure was adopted from the literature[6–8] and was modified in order to allow measuring the bCA melting temperature on interaction with various compounds, including the known CA inhibitor azetazolamide (AZ)[9], which was used in this study as a reference bCA binder at 10 and 20 µM concentration. For 800-compound screening, the test reactions were set up in the following buffer: 10 mM NaH2PO4/Na2HPO4, pH 7.0, 10 mM NaCl. The total volume of the reaction mixture per well was 10 µL. Carbonic anhydrase (Sigma Aldrich Cat# C3934) in 300 µg/mL concentration was pre-mixed with environment-sensitive SYPRO orange dye (Invitrogen, Cat# S6650) at final concentration in the reaction of 10 ×, with regard to the stock concentration stated by the vendor. The mixtures were pre-incubated for 1 h at 4 °C with 20 µM concentrations of the compounds (and 1% final concentration of DMSO), placed into MicroAmp® Optical 384-Well Reaction Plate (ThermoFisher, Cat# 4309849). The reaction mixture was kept at room temperature for 15 min to ensure full protein-compound interactions. The temperature was raised at 1.6 °C/s rate to 40 °C without signal reading. Starting from 40 °C up to 85 °C the heating rate was set to 0.05 °C/s with constant fluorescence reading, using 470/623 nm filter set. The raw data of dye fluorescence intensity change upon melting of the protein were obtained from the instrument ViiA 7 RUO software. Further data processing and visualisation was performed by custom-made Microsoft Excel scripts. The peak of the first derivative for the fluorescence curve was used to define melting temperature Tm. Tm for DMSO control wells, having only protein, dye and 1% DMSO was used as a To to determine melting temperature shifts (ΔTm). All measurements were made in quadruplicates.
`CC(C)C(C#N)N1CCN(c2ncnc3ccsc23)CC1` (stereo not drawn) [compound 16, Z1251205249] was tested, and the ΔTm at 20 µM was 1.5 °C.
In the case of `CC(C)C(C#N)N1CCN(CC(=O)NCc2ccccn2)CC1` (stereo not drawn) [compound 17, Z1176496598], the ΔTm at 20 µM is reported as 1.14 °C.
`CCNC(=O)CCCC(=O)N1CCN(C(C#N)c2ccccc2)CC1` (stereo not drawn) [compound 18, Z1185260979] gave a ΔTm at 20 µM of 1.41 °C.
`COc1ccc(C(C#N)N2CCN(C(=O)C3CCCCC3)CC2)cc1` (stereo not drawn) [compound 30, Z146384300] was tested, and the ΔTm at 20 µM was 1.64 °C.
Molecule `CCc1noc(CC)c1CC(=O)N1CCN(C(C#N)C(C)C)CC1` (stereo not drawn) [compound 31, Z1390085782] has a ΔTm at 20 µM of 1.55 °C.
`Cc1ccccc1CN1CCN(C(=O)CN2CCN(C(C#N)C(C)C)CC2)CC1` (stereo not drawn) [compound 35, Z1171402445] was tested, and the ΔTm at 20 µM was 1.82 °C.
`Cn1cc(CN2CCN(C(C#N)c3ccccc3)CC2)c(-c2cccnc2)n1` (stereo not drawn) [compound 50, Z1470771430] was tested, and the ΔTm at 20 µM was 1.37 °C.

Target: T2, bCA
Test: biochemical
Design: differential scanning fluorimetry (thermal shift) with SYPRO Orange, bovine carbonic anhydrase
Conditions: not given
Remark: another data set of the same source
Method: as §1, with “For” for “Thermal shift assay was carried out using ViiA™ 7 Real-Time PCR System equipped with 384-well block (Applied Biosystems, USA). The TSA procedure was adopted from the literature[6–8] and was modified in order to allow measuring the bCA melting temperature on interaction with various compounds, including the known CA inhibitor azetazolamide (AZ)[9], which was used in this study as a reference bCA binder at 10 and 20 µM concentration. For”, “quadruplicates. Thermal shift assay was carried out using ViiA™ 7 Real-Time PCR System equipped with 384-well block (Applied Biosystems, USA). The TSA procedure was adopted from the literature[6–8] and was modified in order to allow measuring the bCA melting temperature on interaction with various compounds, including the known CA inhibitor azetazolamide (AZ)[9], which was used in this study as a reference bCA binder at 10 and 20 µM concentration.” for “quadruplicates.”
Molecule `CC(C)C(C#N)N1CCN(C(=O)CSc2ccc(Br)cc2)CC1` (stereo not drawn) [compound 36] has a ΔTm at 20 µM of 1.64 °C.
With `CC(C)C(C#N)N1CCN(C(=O)C2CCCO2)CC1` (stereo not drawn) [compound 39] the ΔTm at 20 µM was 1.64 °C.
`COc1ccc(C(=O)N2CCN(C(C#N)C(C)C)CC2)cc1OC(F)F` (stereo not drawn) [compound 46] gave a ΔTm at 20 µM of 1.37 °C.
`CC(C)C(C#N)N1CCN(Cc2nccn2CC(F)(F)F)CC1` (stereo not drawn) [compound 47] gave a ΔTm at 20 µM of 1.19 °C.
